Source: the supplement of paper PMC10307832

Assays:
Experiment in all cases: relative viability (nuclei count vs DMSO), 5 days (fraction); higher = more cells survive
[1] = test system: A-427
In short: (§1)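 Lung cancer cell lines in 1536-well plates got either a single drug or a fixed anchor-drug dose together with five library-drug doses (not always all listed) in √10 steps, by pin tool, on the day after seeding. Nuclei were counted after 5 days, and relative viability is the treated-to-vehicle ratio of nuclei counts. Values are medians of duplicate plates.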

[2] = test system: ABC-1
In short: as §1

[3] = test system: COR-L23
In short: as §1

[4] = test system: EMC-BAC-2
In short: as §1

[5] = test system: HARA
In short: as §1

[6] = test system: HOP-62
In short: as §1

[7] = test system: LK-2
In short: as §1

[8] = test system: LXF-289
In short: as §1

[9] = test system: NCI-H1792
In short: as §1

[10] = test system: NCI-H1793
In short: as §1

[11] = test system: NCI-H1944
In short: as §1

[12] = test system: NCI-H1993
In short: as §1

[13] = test system: NCI-H2009
In short: as §1

[14] = test system: NCI-H2170
In short: as §1

[15] = test system: NCI-H2228
In short: as §1

[16] = test system: NCI-H3122
In short: as §1

[17] = test system: NCI-H596
In short: as §1

[18] = test system: NCI-H727
In short: as §1

[19] = test system: PC-3 [JPC-3]
In short: as §1

[20] = test system: SK-LU-1
In short: as §1

[21] = test system: SK-MES-1
In short: as §1

[22] = test system: SW 1573
In short: as §1

[23] = test system: SW 900
In short: as §1

`O=C(O)c1ccc(-c2c[nH]c3ncc(-c4ccccc4)cc23)cc1C1CCCC1` + COc1cccc2cc(-c3nc([C@H]4CC[C@H](C(=O)O)CC4)n4ncnc(N)c34)[nH]c12 [OSI-027] (partner 0.5 µM) showed a relative viability ([1]; first compound 0.04 µM) of 0.48, a relative viability ([1]; first compound 0.1265 µM) of 0.54 and a relative viability ([1]; first compound 0.4 µM) of 0.418. It also gave a relative viability ([1]; first compound 1.265 µM) of 0.493, a relative viability ([2]; first compound 0.04 µM) of 0.468 and a relative viability ([2]; first compound 0.1265 µM) of 0.511. The relative viability ([2]; first compound 0.4 µM) was 0.418, the relative viability ([2]; first compound 1.265 µM) was 0.568 and the relative viability ([3]; first compound 0.04 µM) was 0.763. The relative viability ([3]; first compound 0.1265 µM) was 0.876, the relative viability ([3]; first compound 0.4 µM) was 0.701 and the relative viability ([3]; first compound 1.265 µM) was 0.511. The relative viability ([4]; first compound 0.04 µM) was 0.401, the relative viability ([4]; first compound 0.1265 µM) was 0.388 and the relative viability ([4]; first compound 0.4 µM) was 0.39. The relative viability ([4]; first compound 1.265 µM) was 0.365, the relative viability ([5]; first compound 0.04 µM) was 0.463 and the relative viability ([5]; first compound 0.1265 µM) was 0.733. It also gave a relative viability ([5]; first compound 0.4 µM) of 0.55, a relative viability ([5]; first compound 1.265 µM) of 0.591 and a relative viability ([6]; first compound 0.04 µM) of 0.899. The relative viability ([6]; first compound 0.1265 µM) was 0.859, the relative viability ([6]; first compound 0.4 µM) was 0.707 and the relative viability ([6]; first compound 1.265 µM) was 0.805. It also gave a relative viability ([7]; first compound 0.04 µM) of 0.202, a relative viability ([7]; first compound 0.1265 µM) of 0.23 and a relative viability ([7]; first compound 0.4 µM) of 0.165. It also gave a relative viability ([7]; first compound 1.265 µM) of 0.195, a relative viability ([8]; first compound 0.04 µM) of 0.848 and a relative viability ([8]; first compound 0.1265 µM) of 0.879. For the same compound, the relative viability ([8]; first compound 0.4 µM) was 0.764, the relative viability ([8]; first compound 1.265 µM) was 0.581 and the relative viability ([9]; first compound 0.1265 µM) was 0.908. For the same compound, the relative viability ([9]; first compound 0.4 µM) was 0.698, the relative viability ([9]; first compound 1.265 µM) was 0.696 and the relative viability ([10]; first compound 0.04 µM) was 0.312. The relative viability ([10]; first compound 0.1265 µM) was 0.362, the relative viability ([10]; first compound 0.4 µM) was 0.288 and the relative viability ([10]; first compound 1.265 µM) was 0.283. For the same compound, the relative viability ([11]; first compound 0.04 µM) was 0.429, the relative viability ([11]; first compound 0.1265 µM) was 0.428 and the relative viability ([11]; first compound 0.4 µM) was 0.345. The relative viability ([11]; first compound 1.265 µM) was 0.39, the relative viability ([12]; first compound 0.04 µM) was 0.521 and the relative viability ([12]; first compound 0.1265 µM) was 0.55. The relative viability ([12]; first compound 0.4 µM) was 0.568, the relative viability ([12]; first compound 1.265 µM) was 0.586 and the relative viability ([13]; first compound 0.04 µM) was 0.69. For the same compound, the relative viability ([13]; first compound 0.1265 µM) was 0.687, the relative viability ([13]; first compound 0.4 µM) was 0.648 and the relative viability ([13]; first compound 1.265 µM) was 0.549. The relative viability ([14]; first compound 0.04 µM) was 0.734, the relative viability ([14]; first compound 0.1265 µM) was 0.685 and the relative viability ([14]; first compound 0.4 µM) was 0.703. For the same compound, the relative viability ([14]; first compound 1.265 µM) was 0.676, the relative viability ([15]; first compound 0.04 µM) was 0.557 and the relative viability ([15]; first compound 0.1265 µM) was 0.568. The relative viability ([15]; first compound 0.4 µM) was 0.446, the relative viability ([15]; first compound 1.265 µM) was 0.355 and the relative viability ([16]; first compound 0.04 µM) was 0.973. The relative viability ([16]; first compound 0.1265 µM) was 1.12, the relative viability ([16]; first compound 0.4 µM) was 0.922 and the relative viability ([16]; first compound 1.265 µM) was 0.717. For the same compound, the relative viability ([17]; first compound 0.04 µM) was 0.728, the relative viability ([17]; first compound 0.1265 µM) was 0.733 and the relative viability ([17]; first compound 0.4 µM) was 0.833. For the same compound, the relative viability ([17]; first compound 1.265 µM) was 0.654, the relative viability ([18]; first compound 0.04 µM) was 0.678 and the relative viability ([18]; first compound 0.1265 µM) was 0.672. For the same compound, the relative viability ([18]; first compound 0.4 µM) was 0.887, the relative viability ([18]; first compound 1.265 µM) was 0.667 and the relative viability ([19]; first compound 0.04 µM) was 0.784. For the same compound, the relative viability ([19]; first compound 0.1265 µM) was 0.792, the relative viability ([19]; first compound 0.4 µM) was 0.82 and the relative viability ([19]; first compound 1.265 µM) was 0.655. For the same compound, the relative viability ([20]; first compound 0.04 µM) was 0.329, the relative viability ([20]; first compound 0.1265 µM) was 0.391 and the relative viability ([20]; first compound 0.4 µM) was 0.324. The relative viability ([20]; first compound 1.265 µM) was 0.274, the relative viability ([21]; first compound 0.04 µM) was 0.647 and the relative viability ([21]; first compound 0.1265 µM) was 0.648. For the same compound, the relative viability ([21]; first compound 0.4 µM) was 0.622, the relative viability ([21]; first compound 1.265 µM) was 0.41 and the relative viability ([22]; first compound 0.04 µM) was 0.685. The relative viability ([22]; first compound 0.1265 µM) was 0.74, the relative viability ([22]; first compound 0.4 µM) was 0.55 and the relative viability ([22]; first compound 1.265 µM) was 0.447. It also gave a relative viability ([23]; first compound 0.04 µM) of 0.696, a relative viability ([23]; first compound 0.1265 µM) of 0.493 and a relative viability ([23]; first compound 0.4 µM) of 0.631. The relative viability ([23]; first compound 1.265 µM) was 0.595.
